Data reported in the OPERA property sets (Mansouri et al. 2018).

conditions: not given

SMILES | logP
CCCOC(=O)c1ccoc1 | 2.36
O=C(CCN1CCCCC1)CN1C(=O)CC(c2ccc(Cl)cc2)C1=O (stereo not given) | 2.23
O=[N+]([O-])c1ccc(Oc2ccc(Cl)cc2Cl)cc1 | 4.64
O=[N+]([O-])c1ccccc1O[C@@H]1O[C@H](CO)[C@@H](O)[C@H](O)[C@H]1O | -0.78
CCNC(=O)[C@@H](NC(=O)CNC(=O)c1ccccc1)C(C)C | 1.05
CCc1cc2n(c1C(=O)c1ccc(F)cc1)CCC2C(=O)O (stereo not given) | 3.63
NC(=S)c1ccc(Cl)cc1 | 2.4
CS(=O)(=O)OCCC[Se]CCCOS(C)(=O)=O | 0.38
CCCCCCCCN(C)N=Nc1[nH]cnc1C(N)=O | 3.22
CCCCCCC(=O)N(C)c1ccc(S(=O)(=O)N(C)C)cc1 | 2.61
CN(C)C(=O)Nc1ccc(Oc2nnnn2C2CCCCC2)cc1 | 2.18
O=C(OC[C@H]1O[C@@H](n2cc(I)c(=O)[nH]c2=O)C[C@@H]1O)c1ccccc1 | 1.4
CC(=O)Nc1ccn(C2OC(CO)C(O)C2O)c(=O)n1 (stereo not given) | -1.35
C=CC12COC(=O)C(=C)C1C1OC(=O)C(=C)C1C(OC(=O)C(=C)C)C2 (stereo not given) | 1.56
C[C@@H]1O[C@@H](O[C@H]2C[C@@H](O)[C@]3(CO)[C@H]4[C@H](O)C[C@]5(C)[C@@H](C6=CC(=O)OC6)CC[C@]5(O)[C@@H]4CC[C@]3(O)C2)[C@H](O)[C@H](O)[C@H]1O | -2
O=C(O)Cc1ccc(C2CCCCC2)cc1 | 3.91
CN1CCN(Cc2ncc([N+](=O)[O-])n2C)CC1 | -0.32
CCOC(=O)NC1=NCC(c2cccc(C)c2C)N1C (stereo not given) | 2.57
CC(C)c1cccc(C2C(=O)c3ccccc3C2=O)c1 | 4.43
O=C1CN=C(c2ccccc2)c2cc(Cl)ccc2N1CC(F)(F)F | 3.97
O=c1c2ccccc2nc2n1CCCC2 | 1.52
CON1C(=O)CC2(CCCC2)C1=O | 1.15
OC(Cn1ccnc1)(c1cccc(Br)c1)c1ccc(F)cc1F (stereo not given) | 3.6
CNC12CCCCC1CC(O)c1ccccc12 (stereo not given) | 1.84
O=C1CC2(CCCC2)C(=O)N1OCc1ccccc1 | 2.3
C[C@]12CCC(=O)C=C1CC[C@@H]1[C@@H]2CC[C@@]2(C)[C@H]1CC[C@]2(O)C(=O)CO | 3.08

SMILES | logP
O=c1[nH]c(=O)n(-c2ccc(Cl)cc2Cl)cc1F | 1.96
Cc1nc(N)sc1C(=O)CCN1CCCC1 | 1.74
Cn1cnc([N+](=O)[O-])c1Cl | 1.06
CNC(=O)N(C)c1nnc(C(F)(F)F)s1 | 1.85
CC(C)(C)C(COc1ccc(Br)cc1)OC(=O)n1ccnc1 (stereo not given) | 4.37
O=[N+]([O-])c1cccc(S(=O)(=O)[O-])c1.[Na+] | -2.61
NS(=O)(=O)c1ccc(Cl)cc1 | 1.15
CNc1cnn(-c2ccccc2)c(=O)c1Cl | 1.19
CCCC1=Nc2cc(Cl)c(S(N)(=O)=O)cc2S(=O)(=O)N1 | 1.21
CCCCCC(C)N (stereo not given) | 2.4
COC(=O)Nc1nc2cc(C(=O)c3ccccc3)ccc2[nH]1 | 2.83
CC(C)(C)c1ccc(C2CCCC(O)C2)c(O)c1 (stereo not given) | 4.05
CCCCCCCC=CCCCCCCC(=O)O | 6.58
COc1ccc(C(=O)OCC2OC(n3cc(I)c(=O)[nH]c3=O)CC2O)cc1 (stereo not given) | 1.38
CCOC(=O)CCCO | 0.43
Nn1c(S)nnc(-c2cc(Cl)cc(Cl)c2)c1=O | 2.67
CN1CC(=O)N(c2ccccc2)C1=O | 0.14
NC(=O)NCCC[C@H](N)C(=O)O | -3.19
O=C(O)CCCCCOc1cccc2ccccc12 | 4.5
CC(=O)O[C@H]1[C@@H](OC(C)=O)C[C@H](O[C@@H]2C(C)O[C@@H](O[C@H]3[C@@H](OC(C)=O)C[C@H](O[C@H]4CC[C@@]5(C)[C@H](CC[C@@H]6[C@@H]5CC[C@]5(C)[C@@H](C7=CC(=O)OC7)[C@@H](OC(C)=O)C[C@]65O)C4)O[C@@H]3C)C[C@@H]2OC(C)=O)O[C@@H]1C (stereo not given in full) | 3.46
CCC(C(=O)OCc1ccccc1C)C(CO)Cc1cncn1C (stereo not given) | 2.42
COCC(C)n1ccc(=O)c(O)c1C (stereo not given) | -0.26
C=C1C(=O)OC2C1C(O)CC(C)C1CCC(=O)C12C (stereo not given) | 0.23
COc1cccc(C2(O)CCCCC2CN(C)C)c1 (stereo not given) | 2.51
Cc1onc(-c2c(F)cccc2Cl)c1C(=O)NC1C(=O)N2C1SC(C)(C)C2C(=O)O (stereo not given) | 2.58
CC1CCC=C2N(C)C=C(C(N)=O)C(=O)N21 (stereo not given) | 0.12

SMILES | logP
CC(=O)NCc1ccc(OCC(O)CNC(C)C)cc1 (stereo not given) | 0.32
CCN(C)C(=O)c1cccc(Oc2ccccc2)c1 | 2.98
COC(=O)NC1=NCC(c2ccc(C(C)C)cc2)N1 (stereo not given) | 2.6
O=C1CC2(CCCC2)C(=O)N1Oc1ccccc1 | 1.77
Cc1ccc(Nc2c([N+](=O)[O-])c(C)nn2-c2ccccc2)cc1 | 3.43
CC[C@H](C)C(=O)O[C@H]1CCC=C2C=C[C@H](C)[C@H](CC[C@@H]3C[C@@H](O)CC(=O)O3)[C@H]21 | 3.95
CNC(=O)NCCCCn1nc(-c2ccccc2)ccc1=O | 1.23
Cc1c(C(C)C)c(=O)n(-c2ccccc2)n1C | 1.94
NC(=O)Nc1ccc(Cl)c(Cl)c1 | 2.65
O=C(OCn1c(=O)[nH]cc(F)c1=O)Oc1ccccc1 | 1.11
CC(=O)O.CCCCCCCCCCCCNC(=N)N | 1.15
N=C(N)NN=Cc1ccc(Cl)c([N+](=O)[O-])c1 | 0.53
CC1(C)S[C@@H]2[C@H](NC(=O)C3(N)CCCCC3)C(=O)N2[C@H]1C(=O)O | 1.31
COc1c(O)ccc(O)c1OC | 0.61
Nc1ccc(C(=O)O)cc1N | 0.13
CNC12CCCCC1COc1ccccc12 (stereo not given) | 3.31
Cc1ncc([N+](=O)[O-])n1CCOC(N)=O | -0.29
CCOCCOCCOP(=S)(N1CC1)N1CC1 | 0.38
CC(C)c1ncc([N+](=O)[O-])[nH]1 | 0.9
O=C1c2ccccc2C(=O)C1c1cccc(Cl)c1 | 3.61
CC(O)Cn1cnc2c1c(=O)n(C)c(=O)n2C (stereo not given) | -0.77
Cc1ccc(C)c(C(=O)NS(=O)(=O)c2ccc(N)cc2)c1 | 2.19
CCn1cc(C(=O)O)c(=O)c2cc(F)c(N3CCN(C)CC3)c(F)c21 | 0.3
CN(C)C(=O)NCCCn1nc(-c2ccccc2)ccc1=O | 1.61
COc1c(O)c(Cl)c(Cl)c(Cl)c1Cl | 4.59
Clc1ccc(-c2ccc(Cl)c(Cl)c2Cl)cc1Cl | 6.79

SMILES | logP
CCc1c(C)nc2n(c1=O)C(C)CCC2 (stereo not given) | 1.43
Cc1ccc(C(N)=S)cc1 | 2.01
COc1ccc2cc(C(C)C(=O)Oc3ccccc3)ccc2c1 (stereo not given) | 5.17
Cc1ccccc1C(=O)C(C)CN1CCCCC1 (stereo not given) | 3.69
COc1ccc(OCC(OC(=O)n2ccnc2)C(C)(C)C)cc1 (stereo not given) | 3.46
CC(CF)NCC(O)COc1cccc2[nH]c3ccccc3c12 (stereo not given) | 2.81
CCc1ncc([N+](=O)[O-])n1CCNC(=S)OC | 1.46
CC(C)OC(=O)C(C(=O)OC(C)C)=C1SC=CS1 | 3.75
Cc1cc(C(=O)O)ccc1N | 1.37
CCCCN1Cn2c(nc3ccccc3c2=O)C1C (stereo not given) | 1.6
COC(=O)NC1=NCC(c2ccccc2F)N1C (stereo not given) | 1.53
Cc1nn(-c2ccccc2)c(Nc2ccc(C(F)(F)F)cc2)c1[N+](=O)[O-] | 3.89
CC(=O)N(C)C1=NC(=O)C(=Cc2ccc([N+](=O)[O-])o2)S1 | 1.05
O=[N+]([O-])c1c(Cl)c(Cl)c(Cl)c(Cl)c1Cl | 4.64
CN(C)CC/C=C1\c2ccccc2COc2ccccc21 | 4.29
O=c1[nH]c(=S)ccn1[C@H]1C=C[C@@H](CO)O1 | -0.28
CCC(CC)(C(=O)NC(N)=O)C(=O)OC(C)C | 1.99
OC(Cn1ccnc1)(c1ccc(F)cc1)c1ccc(-c2ccncc2)cc1 (stereo not given) | 2.47
CCCN1Cn2c(nc3ccccc3c2=O)C1C (stereo not given) | 1.4
NS(=O)(=O)c1cc2c(cc1Br)NC=NS2(=O)=O | 0
Nc1cc([N+](=O)[O-])ccc1O | 1.26
CCCC(=O)OCC1OC(n2cc(F)c(=O)[nH]c2=O)CC1OC(=O)CCC (stereo not given) | 1.9
C=C1C(=O)OC2C1CCC(C)C1(O)CCC(=O)C21C (stereo not given) | 0.83
NCCCCN | -0.7
CC1CCCC2C1N2CC(O)Cn1ccnc1 (stereo not given) | 1.55
O=C(O)COc1cc(Cl)cc(Cl)c1 | 2.84

SMILES | logP
CCCN(C)CC(F)(F)F | 2.18
CCOc1ccc(OCC(OC(=O)n2ccnc2)C(C)(C)C)cc1 (stereo not given) | 3.86
CNC12CCCCC1CCc1ccc(OC)cc12 (stereo not given) | 3.75
COC1N(C2CC(F)C(CO)O2)C(=O)NC(=O)C1(C)Cl (stereo not given) | 0.18
COc1ncnc(NS(=O)(=O)c2ccc(N)cc2)c1OC | 0.7
CC(=O)O[C@H]1C[C@H](O[C@H]2[C@@H](O)C[C@H](O[C@H]3[C@@H](O)C[C@H](OC4CC[C@@]5(C)[C@H](CC[C@@H]6[C@@H]5CC[C@]5(C)[C@@H](C7=CC(=O)OC7)CC[C@]65O)C4)O[C@@H]3C)O[C@@H]2C)O[C@H](C)[C@H]1O[C@@H]1O[C@H](CO)[C@@H](O)[C@H](O)[C@H]1O (stereo not given in full) | 1.23
Cc1onc(-c2ccccc2Cl)c1C(=O)NC1C(=O)N2C1S(=O)C(C)(C)C2C(=O)O (stereo not given) | 2
CCCCCCCCOc1ccc(NC(=O)OCCN2CCOCC2)cc1 | 4.8
CN(C)C(=O)NCCCCn1nc(-c2ccccc2)ccc1=O | 1.58
CC(C)Oc1ccc(OCC(OC(=O)n2ccnc2)C(C)(C)C)cc1 (stereo not given) | 4.08
CNC(=O)NC(=O)C(C)(C(=O)OCOC)C1=CCCCC1 (stereo not given) | 1.8
CCCOc1ccc(OCC(OC(=O)n2ccnc2)C(C)(C)C)cc1 (stereo not given) | 4.1
CC(=O)N1CCCC1=O | -0.05
CCCCC(=O)OCC1OC(n2cc(F)c(=O)[nH]c2=O)CC1OC(=O)CCCC (stereo not given) | 2.72
CN1C(O)C(O)C(O)C(O)C1CO (stereo not given) | -2.4
CCOC(=O)c1cnc2n(c1=O)C(C)CCC2 (stereo not given) | 0.62
CN(C)C(=O)n1cc(F)c(=O)[nH]c1=O | -0.37
CC(=O)Nc1ccc(Cl)cc1 | 2.09
CNC(=O)Oc1cc(C)c(N(C)C)c(C)c1 | 2.56
CN[C@@H](C)[C@H](O)c1ccccc1.Cl | -2.45
CC(C)(CN1CCCCC1)C(=O)c1ccccc1 | 3.78
O=C1CC2(CCCC2)C(=O)N1O | -0.26
Cn1c([N+](=O)[O-])cnc1C1CC1 | 1
NC(=S)NNCc1ccc2c(c1)OCO2 | 0.14
O=[N+]([O-])c1cnc(-c2ccc(F)cc2)n1CCO | 1.33

same assay, conditions: pH 7.4

SMILES | logD
Cn1c(=O)c2[nH]c(Cl)nc2n(C)c1=O | -0.85
